This note sets out measurements from US10266513B2 (Pfizer Inc., priority 2012, dated 2019).

Chain of human full-length BTK Kinase (Q06187 whole entry): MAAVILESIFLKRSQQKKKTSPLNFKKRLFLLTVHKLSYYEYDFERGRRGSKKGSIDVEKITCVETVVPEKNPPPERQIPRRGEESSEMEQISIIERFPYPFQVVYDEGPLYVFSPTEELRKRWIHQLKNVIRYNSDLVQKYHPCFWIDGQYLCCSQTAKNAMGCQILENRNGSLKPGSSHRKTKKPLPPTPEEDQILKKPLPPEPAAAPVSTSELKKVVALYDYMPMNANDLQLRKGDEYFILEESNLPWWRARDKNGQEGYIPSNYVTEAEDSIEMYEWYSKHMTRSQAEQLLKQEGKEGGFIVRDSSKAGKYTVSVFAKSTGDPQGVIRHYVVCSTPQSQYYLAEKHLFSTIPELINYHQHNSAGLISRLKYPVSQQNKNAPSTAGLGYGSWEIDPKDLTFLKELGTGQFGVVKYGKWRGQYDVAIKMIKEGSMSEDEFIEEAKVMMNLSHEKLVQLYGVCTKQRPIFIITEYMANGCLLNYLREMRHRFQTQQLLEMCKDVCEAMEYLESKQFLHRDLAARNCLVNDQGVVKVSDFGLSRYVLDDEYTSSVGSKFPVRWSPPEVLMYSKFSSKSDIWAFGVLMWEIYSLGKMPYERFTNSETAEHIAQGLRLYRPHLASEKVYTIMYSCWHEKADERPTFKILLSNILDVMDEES

The target in this assay is human full-length BTK Kinase (Homo sapiens (Human), UniProt Q06187). As to the kind of experiment: Human BTK LanthaScreen Assay (TR-FRET). Format: biochemical. The settings on record: 50 μM ATP, FAM-Srctide peptide substrate, read-out: BTK Inhibition IC50. From the text:
Human BTK LanthaScreen Assay
For the compound `N#CN1CCCC(n2nc(-c3ccc(Oc4cc(F)ccc4F)cc3)c(C(N)=O)c2N)C1` (stereo not drawn) [Example 43, 5-amino-1-(1-cyanopiperidin-3-yl)-3-[4-(2,5-difluorophenoxy)phenyl]-1H-pyrazole-4-carboxamide], the half-maximal inhibitory concentration (IC50) was determined as 0.77 nM.

With `CC(C)Oc1ccc(Oc2ccc(-c3nn(C4CCCN(C#N)C4)c(N)c3C(N)=O)cc2)cc1` (stereo not drawn) [Example 44, 5-amino-1-(1-cyanopiperidin-3-yl)-3-[4-(4-isopropoxyphenoxy)phenyl]-1H-pyrazole-4-carboxamide], the IC50 turned out to be 24.4 nM.

For `N#CN1CCCC(n2nc(-c3ccc(Oc4cc(F)ccc4Cl)cc3)c(C(N)=O)c2N)C1` (stereo not drawn) [Example 45, 5-amino-3-[4-(2-chloro-5-fluoro-phenoxy)phenyl]-1-(1-cyanopiperidin-3-yl)-1H-pyrazole-4-carboxamide], the concentration for half-maximal inhibition (IC50) was determined as 0.81 nM.

Turning to `N#CN1CCCC(n2nc(-c3ccc(Oc4ccc(F)c(OC(F)(F)F)c4)cc3)c(C(N)=O)c2N)C1` (stereo not drawn) [Example 46, 5-amino-1-(1-cyanopiperidin-3-yl)-3-{4-[4-fluoro-3-(trifluoromethoxy)-phenoxy]phenyl}-1H-pyrazole-4-carboxamide], the half-inhibitory concentration (IC50) was 6.4 nM.

Turning to `COc1cc(F)ccc1Oc1ccc(-c2nn(C3CCCN(C#N)C3)c(N)c2C(N)=O)cc1` (stereo not drawn) [Example 47, 5-amino-1-(1-cyanopiperidin-3-yl)-3-{4-[4-fluoro-2-methoxyphenoxy]phenyl}-1H-pyrazole-4-carboxamide], the IC50 came out at 1.6 nM.

With `COc1cccc(Oc2ccc(-c3nn(C4CCCN(C#N)C4)c(N)c3C(N)=O)cc2)c1` (stereo not drawn) [Example 48, 5-amino-1-(1-cyanopiperidin-3-yl)-3-[4-(3-methoxyphenoxy)phenyl]-1H-pyrazole-4-carboxamide], the 50% inhibitory concentration (IC50) was found to be 0.44 nM.

With `N#CN1CCCC(n2nc(-c3ccc(Oc4cc(Cl)ccc4F)cc3)c(C(N)=O)c2N)C1` (stereo not drawn) [Example 49, 5-amino-3-[4-(5-chloro-2-fluorophenoxy)phenyl]-1-(1-cyanopiperidin-3-yl)-1H-pyrazole-4-carboxamide], the IC50 stood at 2.2 nM.

In the case of `N#CN1CCCC(n2nc(-c3ccc(Oc4ccc(Cl)cc4Cl)cc3)c(C(N)=O)c2N)C1` (stereo not drawn) [Example 50, 5-amino-1-(1-cyanopiperidin-3-yl)-3-[4-(2,4-dichlorophenoxy)phenyl]-1H-pyrazole-4-carboxamide], the concentration for half-maximal inhibition (IC50) was determined as 1.8 nM.

As to `N#CN1CCCC(n2nc(-c3ccc(Oc4cc(F)cc(Cl)c4)cc3)c(C(N)=O)c2N)C1` (stereo not drawn) [Example 51, 5-amino-3-[4-(3-chloro-5-fluoro-phenoxy)phenyl]-1-(1-cyanopiperidin-3-yl)-1H-pyrazole-4-carboxamide], the 50% inhibitory concentration (IC50) came out at 1.9 nM.

For the compound `N#CN1CCCC(n2nc(-c3ccc(Oc4ccccc4C(F)(F)F)cc3)c(C(N)=O)c2N)C1` (stereo not drawn) [Example 52, 5-amino-1-(1-cyanopiperidin-3-yl)-3-{4-[2-(trifluoromethyl)phenoxy]-phenyl}-1H-pyrazole-4-carboxamide], the half-inhibitory concentration (IC50) came out at 2.9 nM.

Regarding `N#CN1CCCC(n2nc(-c3ccc(Oc4cccc(Cl)c4)cc3)c(C(N)=O)c2N)C1` (stereo not drawn) [Example 53, 5-amino-3-[4-(3-chlorophenoxy)-phenyl]-1-(1-cyanopiperidin-3-yl)-1H-pyrazole-4-carboxamide], the IC50 worked out at 1.7 nM.

Consider `Cc1c(F)cccc1Oc1ccc(-c2nn(C3CCCN(C#N)C3)c(N)c2C(N)=O)cc1` (stereo not drawn) [Example 54, 5-amino-1-(1-cyanopiperidin-3-yl)-3-[4-(3-fluoro-2-methylphenoxy)phenyl]-1H-pyrazole-4-carboxamide], for which the concentration for half-maximal inhibition (IC50) stood at 1.2 nM.

For the compound `N#CN1CCCC(n2nc(-c3ccc(Oc4cc(Cl)ccc4Cl)cc3)c(C(N)=O)c2N)C1` (stereo not drawn) [Example 55, 5-amino-1-(1-cyanopiperidin-3-yl)-3-[4-(2,5-dichlorophenoxy)phenyl]-1H-pyrazole-4-carboxamide], the IC50 is 2.2 nM.

Consider `N#CN1CCCC(n2nc(-c3ccc(Oc4ccccc4Cl)cc3)c(C(N)=O)c2N)C1` (stereo not drawn) [Example 56, 5-amino-3-[4-(2-chlorophenoxy)-phenyl]-1-(1-cyanopiperidin-3-yl)-1H-pyrazole-4-carboxamide], for which the IC50 is 1.3 nM.

On to `N#CN1CCCC(n2nc(-c3ccc(Oc4cccc(Cl)c4F)cc3)c(C(N)=O)c2N)C1` (stereo not drawn) [Example 57, 5-amino-3-[4-(3-chloro-2-fluoro-phenoxy)phenyl]-1-(1-cyanopiperidin-3-yl)-1H-pyrazole-4-carboxamide], for which the IC50 stood at 3.1 nM.

`N#CN1CCCC(n2nc(-c3ccc(Oc4ccc(F)c(Cl)c4)cc3)c(C(N)=O)c2N)C1` (stereo not drawn) [Example 58, 5-amino-3-[4-(3-chloro-4-fluoro-phenoxy)phenyl]-1-(1-cyanopiperidin-3-yl)-1H-pyrazole-4-carboxamide]: the IC50 was determined as 1.8 nM.

As to `N#CN1CCCC(n2nc(-c3ccc(Oc4cc(F)c(F)cc4F)cc3)c(C(N)=O)c2N)C1` (stereo not drawn) [Example 59, 5-amino-1-(1-cyanopiperidin-3-yl)-3-[4-(2,4,5-trifluorophenoxy)phenyl]-1H-pyrazole-4-carboxamide], the IC50 turned out to be 8.5 nM.

For `N#CN1CCCC(n2nc(-c3ccc(Oc4cc(Cl)cc(Cl)c4)cc3)c(C(N)=O)c2N)C1` (stereo not drawn) [Example 60, 5-amino-1-(1-cyanopiperidin-3-yl)-3-[4-(3,5-dichlorophenoxy)phenyl]-1H-pyrazole-4-carboxamide], the concentration for half-maximal inhibition (IC50) came to 4.8 nM.

Turning to `N#CN1CCCC(n2nc(-c3ccc(Oc4ccc(F)c(F)c4F)cc3)c(C(N)=O)c2N)C1` (stereo not drawn) [Example 61, 5-amino-1-(1-cyanopiperidin-3-yl)-3-[4-(2,3,4-trifluorophenoxy)phenyl]-1H-pyrazole-4-carboxamide], the IC50 worked out at 5.1 nM.

Regarding `N#CN1CCCC(n2nc(-c3ccc(Oc4ccccc4OC(F)(F)F)cc3)c(C(N)=O)c2N)C1` (stereo not drawn) [Example 62, 5-amino-1-(1-cyanopiperidin-3-yl)-3-{4-[2-(trifluoromethoxy)phenoxy]phenyl}-1H-pyrazole-4-carboxamide], the half-maximal inhibitory concentration (IC50) was found to be 3.3 nM.

Turning to `N#CN1CCCC(n2nc(-c3ccc(Oc4c(F)cccc4Cl)cc3)c(C(N)=O)c2N)C1` (stereo not drawn) [Example 63, 5-amino-3-[4-(2-chloro-6-fluoro-phenoxy)phenyl]-1-(1-cyanopiperidin-3-yl)-1H-pyrazole-4-carboxamide], the half-inhibitory concentration (IC50) was 4.9 nM.

`N#CN1CCCC(n2nc(-c3ccc(Oc4ccc(F)c(C(F)(F)F)c4)cc3)c(C(N)=O)c2N)C1` (stereo not drawn) [Example 64, 5-amino-1-(1-cyanopiperidin-3-yl)-3-{4-[4-fluoro-3-(trifluoromethyl)phenoxy]phenyl}-1H-pyrazole-4-carboxamide]: the half-inhibitory concentration (IC50) turned out to be 8.7 nM.

Take `COc1ccccc1Oc1ccc(-c2nn(C3CCCN(C#N)C3)c(N)c2C(N)=O)cc1` (stereo not drawn) [Example 65, 5-amino-1-(1-cyanopiperidin-3-yl)-3-[4-(2-methoxyphenoxy)phenyl]-1H-pyrazole-4-carboxamide]: the IC50 came out at 10.6 nM.

Take `N#CN1CCCC(n2nc(-c3ccc(Oc4cc(F)cc(F)c4)cc3)c(C(N)=O)c2N)C1` (stereo not drawn) [Example 66, 5-amino-1-(1-cyanopiperidin-3-yl)-3-[4-(3,5-difluorophenoxy)phenyl]-1H-pyrazole-4-carboxamide]: the 50% inhibitory concentration (IC50) is 7.2 nM.

`N#CN1CCCC(n2nc(-c3ccc(Cc4ccccc4)cc3)c(C(N)=O)c2N)C1` (stereo not drawn) [Example 67]: the 50% inhibitory concentration (IC50) was 2.4 nM.

With `Cc1cccc(Cc2ccc(-c3nn(C4CCCN(C#N)C4)c(N)c3C(N)=O)cc2)c1` (stereo not drawn) [Example 68, 5-amino-1-(1-cyanopiperidin-3-yl)-3-[4-(3-methylbenzyl)phenyl]-1H-pyrazole-4-carboxamide], the concentration for half-maximal inhibition (IC50) is 1.9 nM.

Turning to `Cc1cccc(Cc2ccc(-c3nn([C@@H]4CCCN(C#N)C4)c(N)c3C(N)=O)cc2)c1` [Example 69, (R)-5-amino-1-(1-cyanopiperidin-3-yl)-3-(4-(3-methylbenzyl)phenyl)-1H-pyrazole-4-carboxamide], the IC50 was determined as 0.6 nM.

As for `Cc1cccc(Cc2ccc(-c3nn([C@H]4CCCN(C#N)C4)c(N)c3C(N)=O)cc2)c1` [Example 70, (S)-5-amino-1-(1-cyanopiperidin-3-yl)-3-(4-(3-methylbenzyl)phenyl)-1H-pyrazole-4-carboxamide], the half-maximal inhibitory concentration (IC50) came to 21.9 nM.

`N#CN1CCCC(n2nc(-c3ccc(Cc4ccccc4Cl)cc3)c(C(N)=O)c2N)C1` (stereo not drawn) [Example 71, 5-amino-3-(4-(2-chlorobenzyl)phenyl)-1-(1-cyanopiperidin-3-yl)-1H-pyrazole-4-carboxamide]: the 50% inhibitory concentration (IC50) came out at 2.7 nM.

On to `N#CN1CCC[C@@H](n2nc(-c3ccc(Cc4ccccc4Cl)cc3)c(C(N)=O)c2N)C1` [Example 72, (R)-5-amino-3-(4-(2-chlorobenzyl)phenyl)-1-(1-cyanopiperidin-3-yl)-1H-pyrazole-4-carboxamide], for which the IC50 amounted to 0.54 nM.

Consider `N#CN1CCC[C@H](n2nc(-c3ccc(Cc4ccccc4Cl)cc3)c(C(N)=O)c2N)C1` [Example 73, (S)-5-amino-3-(4-(2-chlorobenzyl)phenyl)-1-(1-cyanopiperidin-3-yl)-1H-pyrazole-4-carboxamide], for which the half-inhibitory concentration (IC50) worked out at 6.1 nM.

Regarding `N#CN1CCCC(n2nc(-c3ccc(Cc4ccccc4F)cc3)c(C(N)=O)c2N)C1` (stereo not drawn) [Example 74, 5-amino-1-(1-cyanopiperidn-3-yl)-3-[4-(2-fluorobenzyl)phenyl]-1H-pyrazole-4-carboxamide], the IC50 was determined as 1 nM.

In the case of `N#CN1CCC[C@H](n2nc(-c3ccc(Cc4ccccc4F)cc3)c(C(N)=O)c2N)C1` [Example 76, (S)-5-amino-1-(1-cyanopiperidin-3-yl)-3-(4-(2-fluorobenzyl)phenyl)-1H-pyrazole-4-carboxamide], the concentration for half-maximal inhibition (IC50) is 12 nM.

Turning to `N#CN1CCCC(n2nc(-c3ccc(Cc4cccc(F)c4)cc3)c(C(N)=O)c2N)C1` (stereo not drawn) [Example 77, 5-amino-1-(1-cyanopiperidin-3-yl)-3-[4-(3-fluorobenzyl)phenyl]-1H-pyrazole-4-carboxamide], the IC50 amounted to 2.3 nM.

In the case of `N#CN1CCCC(n2nc(-c3ccc(Cc4ccc(F)cc4F)cc3)c(C(N)=O)c2N)C1` (stereo not drawn) [Example 80, 5-amino-1-(1-cyanopiperidin-3-yl)-3-[4-(2,4-difluorobenzyl)phenyl]-1H-pyrazole-4-carboxamide], the IC50 was 15.6 nM.

Regarding `N#CN1CCCC(n2nc(-c3ccc(Cc4ccc(F)c(F)c4)cc3)c(C(N)=O)c2N)C1` (stereo not drawn) [Example 83, 5-amino-1-(1-cyanopiperidin-3-yl)-3-[4-(3,4-difluorobenzyl)phenyl]-1H-pyrazole-4-carboxamide], the IC50 was determined as 15.3 nM.
